Data: patent publication US7625948B2, “Ester compound and medicinal use thereof” (Japan Tobacco Inc., priority 2002, dated 2009)

How the values were obtained:
HepG2 cells = assay: Test Example 2: inhibition of apolipoprotein B secretion from HepG2 cells, ELISA (also used for metabolites in Test Example 8); type: cell-based; settings: Homo sapiens, 24 hours, apo B in supernatant by ELISA, read-out: Test Example 2 Inhibition of apo B secretion IC50
How it was run: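 HepG2 cells cultured 24 h, then exposed 24 h to compounds or metabolites in medium with 0.5% DMSO. Secreted apo B in supernatant quantified by sandwich ELISA (HRP, ABTS, 405 nm) against purified human apo B standard; % inhibition vs DMSO group, IC50 derived.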

[1] = biological target: T1, Microsomal triglyceride transfer protein (MTP) from bovine liver (Bos taurus, UniProt P55156); assay: Test Example 1: inhibition of interliposomal triglyceride (TG) transfer activity by MTP (also used for metabolites in Test Example 8); type: biochemical; settings: MTP-mediated 14C-triolein transfer between liposomes, 37° C., one hour; read-out: Test Example 1 MTP inhibition IC50
T1 construct: from tissue; host or cells: bovine liver
T1 sequence (P55156 12-887): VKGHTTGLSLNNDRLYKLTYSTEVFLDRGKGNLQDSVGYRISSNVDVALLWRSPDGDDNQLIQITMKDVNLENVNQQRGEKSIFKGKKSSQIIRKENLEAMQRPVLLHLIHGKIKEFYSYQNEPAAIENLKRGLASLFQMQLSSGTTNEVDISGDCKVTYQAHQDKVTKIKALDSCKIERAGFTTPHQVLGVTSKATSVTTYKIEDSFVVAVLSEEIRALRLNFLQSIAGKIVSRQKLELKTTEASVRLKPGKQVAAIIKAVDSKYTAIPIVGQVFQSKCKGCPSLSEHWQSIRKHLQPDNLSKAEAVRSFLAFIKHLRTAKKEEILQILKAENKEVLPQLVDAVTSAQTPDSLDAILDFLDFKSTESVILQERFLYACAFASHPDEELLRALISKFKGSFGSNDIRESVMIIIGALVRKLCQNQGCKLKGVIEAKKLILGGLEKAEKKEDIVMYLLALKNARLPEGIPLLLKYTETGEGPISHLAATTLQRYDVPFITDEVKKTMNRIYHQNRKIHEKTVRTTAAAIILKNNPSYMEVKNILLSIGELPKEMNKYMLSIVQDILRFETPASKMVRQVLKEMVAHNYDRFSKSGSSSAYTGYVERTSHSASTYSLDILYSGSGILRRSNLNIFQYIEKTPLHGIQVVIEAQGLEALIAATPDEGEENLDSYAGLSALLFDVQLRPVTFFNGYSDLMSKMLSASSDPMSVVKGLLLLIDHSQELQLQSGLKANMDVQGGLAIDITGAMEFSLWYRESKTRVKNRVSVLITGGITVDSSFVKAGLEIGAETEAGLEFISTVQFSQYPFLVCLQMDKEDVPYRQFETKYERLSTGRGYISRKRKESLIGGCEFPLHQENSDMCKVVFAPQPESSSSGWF
T1 sequence (P05307 21-510 partner): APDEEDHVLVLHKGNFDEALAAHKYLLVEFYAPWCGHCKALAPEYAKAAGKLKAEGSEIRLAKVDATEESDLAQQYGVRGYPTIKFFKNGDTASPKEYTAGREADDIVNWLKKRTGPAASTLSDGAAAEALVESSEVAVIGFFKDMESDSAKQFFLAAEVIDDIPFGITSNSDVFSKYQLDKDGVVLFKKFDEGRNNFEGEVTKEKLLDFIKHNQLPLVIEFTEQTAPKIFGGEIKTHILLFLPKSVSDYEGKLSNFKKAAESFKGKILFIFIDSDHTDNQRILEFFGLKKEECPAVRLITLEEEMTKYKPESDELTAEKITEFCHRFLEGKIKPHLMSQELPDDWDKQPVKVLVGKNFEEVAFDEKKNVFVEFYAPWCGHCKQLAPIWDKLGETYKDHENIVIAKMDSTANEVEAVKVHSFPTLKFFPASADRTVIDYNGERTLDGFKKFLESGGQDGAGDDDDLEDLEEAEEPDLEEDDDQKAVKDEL
Method: Inhibition of Interliposomal Triglyceride (TG) Transfer Activity by MTP
Microsomal triglyceride transfer protein (MTP) from bovine liver was partially purified in such a way described below. A buffer (50 mM Tris, 250 mM sucrose, 1 mM EDTA, 0.02% NaN3 (pH 7.4)) for making a homogenate preparation was added to bovine liver, and the mixture was homogenated under ice-cooling, then centrifuged at 10,000×g (4° C., 30 minutes). The supernatant was adjusted to pH 5.1 with hydrochloric acid, and stirred for 30 minutes. The solution was further centrifuged at 10,000×g (4° C., 30 minutes), and 1 mM Tris buffer was added to the precipitated residue, and the mixture was adjusted to pH 8.6 with sodium hydroxide. After addition of 2.7M ammonium sulfate solution, the mixture was stirred for 30 minutes, then centrifuged at 10,000×g (4° C., 40 minutes). The resulting supernatant was served as a crude extraction fraction of MTP and stored at −80° C. under freezing. In its practical use, the crude extraction fraction of MTP was purified by column chromatography on diethylaminoethyl (DEAE) Sepharose using FPLC (Fast Performance Liquid Chromatography) system, and the purified MTP was used for the test.
Small unilamellar-vesicle (SUV) liposome (donor, 0.25 mol % triolein, 5 mol % cardiolipin) labeled with ^14C-triolein and non-labeled SUV liposome (acceptor, 0.25 mol % triolein) were prepared. A fixed amount of donor and acceptor, and MTP were mixed with a sample dissolved in DMSO or with DMSO. The mixture was incubated in a 15 mM Tris hydrochloride buffer (pH 7.4) containing 40 mM sodium chloride, 1 mM EDTA (ethylenediaminetetraacetic acid), 0.02% NaN3 and 0.5% bovine serum albumin at 37° C. for one hour. After completion of the incubation, a suspension of DEAE cellulose (50% v/v) in 15 mM Tris hydrochloride buffer (pH 7.4) was added to the above solution, and the mixture was centrifuged to separate the donor and the acceptor. The radioactivity in the acceptor was measured by liquid scintillation counter. The value obtained by subtracting the radioactivity in the blank from the amount of radioactivity in the acceptor of a DMSO group was determined as MTP-mediated TG transfer activity, and it was compared with the value obtained by subtracting the radioactivity in the blank from the radioactivity in a sample group. The blank was prepared by adding 15 mM Tris-HCl buffer (pH 7.4) in place of MTP. Inhibition rate (%) was calculated from the values obtained according to the following equation.
Inhibition rate (%)=100×(1 minus ((radioactivity of sample group minus radioactivity of blank group)/(radioactivity of DMSO group minus radioactivity of blank group))).
50% Inhibition rate (IC50) was determined on the basis of the above equation.
Inhibitory Activity on MTP and apo B Secretion Inhibition by Metabolites
In a similar manner to Test Examples 1 and 2, the activity of metabolites was assayed.

| Structure (SMILES) | IC50 (HepG2 cells) [nM] | IC50 [1] [nM] |
| --- | --- | --- |
| CCCCOc1ccccc1C(=O)Nc1ccc(CC(=O)OCC(C(=O)NCC)(C(=O)NCC)c2ccccc2)cc1 [Example 1-52] | 690 | 10 |
| CCOC(=O)C(COC(=O)Cc1ccc(NC(=O)c2ccccc2-c2cccc(C(F)(F)F)c2)cc1)(C(=O)OCC)c1ccccc1 [Example 1-53] | 860 | 0.43 |
| CCNC(=O)C(COC(=O)Cc1ccc(NC(=O)c2ccccc2-c2ccc(Cl)cc2)cc1)(C(=O)NCC)c1ccccc1 [Example 1-70] | 270 | 1.6 |
| CCOC(=O)C(CCOC(=O)Cc1cccc(NC(=O)c2ccccc2-c2ccc(C(F)(F)F)cc2)c1C)(C(=O)OCC)c1ccccc1 [Example 5, 2-[2-(2-{2-methyl-3-[(4′-trifluoromethylbiphenyl-2-carbonyl)amino]phenyl}acetoxy)ethyl]-2-phenylmalonic acid diethyl ester] | 19 | 3.1 |
| CCOC(=O)C(COC(=O)Cc1cccc(NC(=O)c2ccccc2-c2ccc(C(F)(F)F)cc2)c1)(C(=O)OCC)c1ccccc1 [Example 5-2] | 875 | 66.5 |
| CC(C)NC(=O)C(CCOC(=O)Cc1cccc(NC(=O)c2ccccc2-c2ccc(C(F)(F)F)cc2)c1)(C(=O)NC(C)C)c1ccccc1 [Example 5-8] | 340 | 14 |
| CCNC(=O)C(CCCOC(=O)Cc1cccc(NC(=O)c2ccccc2-c2ccc(C(F)(F)F)cc2)c1C)(C(=O)NCC)c1ccccc1 [Example 5-10] | 300 | 6.2 |
| O=C(Nc1ccccc1-c1ccccc1)c1ccc(C(=O)OCCC2(C(=O)NCC(F)(F)F)c3ccccc3-c3ccccc32)cc1 [Example 6-3] | 510 | 5.2 |
| O=C(OCCC(C(=O)NCC(F)(F)F)(c1ccccc1)c1ccccc1)c1ccc(NC(=O)c2ccccc2-c2ccc(C(F)(F)F)cc2)cc1 [Example 6-8] | 630 | 50 |
| O=C(OCCC(C(=O)NCC(F)(F)F)c1ccccc1)c1ccc(NC(=O)c2ccccc2-c2ccc(C(F)(F)F)cc2)cc1 (centres unmarked) [Example 6-10] | 870 | 22 |
| CCOC(=O)C(CCOC(=O)c1ccc(OC(=O)c2ccccc2-c2ccc(C(F)(F)F)cc2)cc1)(C(=O)OCC)c1ccccc1 [Example 6-17] | 420 | 2.3 |

The next lines start with the values.

| IC50 (HepG2 cells) [nM] | IC50 [1] [nM] | Structure (SMILES) |
| --- | --- | --- |
| 46 | 5 | CCCOC(=O)C(COC(=O)Cc1ccc(NC(=O)c2ccccc2-c2ccc(C(F)(F)F)cc2)cc1)(C(=O)OCCC)c1ccccc1 [Example 1-62] |
| 90 | 16 | CC(C)COC(=O)C(COC(=O)Cc1ccc(NC(=O)c2ccccc2-c2ccc(C(F)(F)F)cc2)cc1)(C(=O)OCC(C)C)c1ccccc1 [Example 1-63] |
| 28 | 27 | CC(C)CCNC(=O)C(COC(=O)Cc1ccc(NC(=O)c2ccccc2-c2ccc(C(F)(F)F)cc2)cc1)(C(=O)NCCC(C)C)c1ccccc1 [Example 1-67] |
| 90 | 9.1 | CCNC(=O)C(COC(=O)Cc1ccc(NC(=O)c2ccccc2C2CCCCC2)cc1)(C(=O)NCC)c1ccccc1 [Example 1-69] |
| 120 | 1.8 | CCNC(=O)C(COC(=O)Cc1ccc(NC(=O)c2ccccc2-c2ccc(Cl)c(Cl)c2)cc1)(C(=O)NCC)c1ccccc1 [Example 1-71] |
| 8.9 | 1.8 | CCNC(=O)C(COC(=O)Cc1ccc(NC(=O)c2ccccc2-c2ccc(C(F)(F)F)cc2)c(C(=O)N(C)C)c1)c1ccccc1 (centres unmarked) [Example 2-21] |
| 0.61 | 2.7 | CCOC(=O)C(COC(=O)Cc1ccc(NC(=O)c2ccccc2-c2ccc(C(F)(F)F)cc2)c(C(=O)N2CCCCC2)c1)(C(=O)OCC)c1ccccc1 [Example 2-23] |
| 13 | 2.1 | CCOC(=O)C(COC(=O)Cc1ccc(NC(=O)c2ccccc2-c2ccc(C(F)(F)F)cc2)c(OC)c1)(C(=O)OCC)c1ccccc1 [Example 3-4] |
| 64 | 13 | CCOC(=O)C(COC(=O)Cc1ccc(NC(=O)c2ccccc2-c2ccc(C(F)(F)F)cc2)c(OCc2ccccc2)c1)(C(=O)OCC)c1ccccc1 [Example 3-14] |
| 86.5 | 6.2 | CCOC(=O)C(CCOC(=O)Cc1cccc(NC(=O)c2ccccc2-c2ccc(C(F)(F)F)cc2)c1)(C(=O)OCC)c1ccccc1 [Example 5-3] |
| 57 | 2.4 | CCNC(=O)C(CCOC(=O)Cc1cccc(NC(=O)c2ccccc2-c2ccc(C(F)(F)F)cc2)c1)(C(=O)NCC)c1ccccc1 [Example 5-4] |
| 5 | 4.5 | CCCNC(=O)C(CCOC(=O)Cc1cccc(NC(=O)c2ccccc2-c2ccc(C(F)(F)F)cc2)c1)(C(=O)NCCC)c1ccccc1 [Example 5-5] |
| 260 | 3.9 | CCOC(=O)C(CCOC(=O)Cc1ccc(C)c(NC(=O)c2ccccc2-c2ccc(C(F)(F)F)cc2)c1)(C(=O)OCC)c1ccccc1 [Example 5-6] |
| 58.3 | 3.47 | O=C(OCCC1(C(=O)NCC(F)(F)F)c2ccccc2-c2ccccc21)c1ccc(NC(=O)c2ccccc2-c2ccc(C(F)(F)F)cc2)cc1 [Example 6, 4-[(4′-Trifluoromethylbiphenyl-2-carbonyl)amino]benzoic acid 2-[9-(2,2,2-trifluoroethylcarbamoyl)-9H-fluoren-9-yl]ethyl ester] |
| 87 | 6.3 | CCOC(=O)C(CCOC(=O)c1ccc(NC(=O)c2ccccc2-c2ccc(C(F)(F)F)cc2)cc1)(C(=O)OCC)c1ccccc1 [Example 6-14] |
| 57 | 2 | CCOC(=O)C(CCOC(=O)c1ccc(NC(=O)c2ccccc2-c2ccc(C(F)(F)F)cc2)c(C)c1)(C(=O)OCC)c1ccccc1 [Example 6-15] |
| 170 | 2.9 | CCOC(=O)C(CCOC(=O)c1ccc(NC(=O)c2ccccc2-c2ccc(C(F)(F)F)cc2)cc1Cl)(C(=O)OCC)c1ccccc1 [Example 6-16] |
